Test results as given in patent US11214556B1, “Method of treating colorectal cancer” (King Abdulaziz University, priority 2019, dated 2022).

Legend:
Format in all cases: cell-based, human
HCT-116 cells [1] = assay: SRB cytotoxicity assay, HCT-116; conditions: SRB assay, 72 h exposure; ± SEM
Summary of the method: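 Cells in RPMI1640/10% FBS were seeded at 5000 per well and grown 24 h. They were then exposed to 0.01–100 μM compound, or 1% DMSO, for 72 h at 37 °C. After TCA fixation and SRB staining, OD was read at 510 nm and viability expressed relative to untreated controls.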

HT-29 cells = assay: SRB cytotoxicity assay, HT-29; conditions: monolayer, 72 h exposure, ± SEM
Summary of the method: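 Cells seeded at 5000/well, grown 24 h, then exposed 72 h at 37 °C to 0.01–100 μM compound or 1% DMSO in RPMI1640 with 10% FBS. TCA-fixed, SRB-stained, OD read at 510 nm; viability expressed relative to untreated control cells.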

HCT-116 cells [2] = assay: Nuclear fragmentation by DAPI staining; conditions: 2.85 μM (IC50), 48 h compared to 24 h
Protocol: Several assays were performed to determine the apoptotic effect of the early lead MOS-1512 as well as the potent derivative MOS-4112 on HCT-116 cells. […] See Drutovic, D.; Chripkova, M.; Pilatova, M.; Kruzliak, P.; Perjesi, P.; Sarissky, M.; Lupi, M.; Damia, G.; Broggini, M.; Mojzis, J., Benzylidenetetralones, cyclic chalcone analogues, induce cell cycle arrest and apoptosis in HCT116 colorectal cancer cells. Tumour Biol 2014, 35 (10), 9967-75, incorporated herein by reference in its entirety.
Cells were cultured on sterile 22 mm^2 cover slips (Harvard Apparatus, MA, USA) in sterile six well plates at a density of 2×10^5 cells/well. […] The fixed and permeabilized cells nuclei were denatured with 2 N HCl (300 μl) for 10 min, washed three times more, and treated with 0.1 μg/ml 4′,6′-diamidino-2-phenylindole, dihydrochloride (DAPI) (Sigma-Aldrich, St. Louis, Mo., USA) (1:1000) in (phosphate-buffered saline-Tween 20 (PBST) for 1 hr. After staining, the cells were washed twice with PBS. The cover slips were then mounted on a glass slide with anti-fade mounting medium and viewed with an epifluorescence microscope, Leica, DM 5500 B (Leica, Buffalo Grove, Ill., USA) at a magnification of 60×, and data were captured digitally and quantified using the microscope provided software.

HCT-116 cells [3] = assay: Annexin V/propidium iodide apoptotic cell determination; conditions: IC50 concentration
Protocol: Apoptosis was determined by staining cells with Annexin V-fluorescein isothiocyanate (FITC) and counterstaining with propidium iodide (PI) using the Annexin V-FITC/PI apoptosis detection kit (BD Biosciences, San Diego, Calif., USA) according to the manufacturer's instructions. Briefly, 4×10^6 cell/T 75 flask were exposed to the IC50 of tested compound for 24 and 48 h. The cells were collected by trypsinization and 0.5×10^6 cells were washed twice with phosphate-buffered saline (PBS) and stained with 5 μl Annexin V-FITC and 5 μl PI in 1× binding buffer (BD Biosciences, San Jose, Calif., USA) for 15 min at room temperature in the dark. Analyses were performed using FACS Calibur flow cytometer (BD Biosciences, San Jose, Calif., USA).

HCT-116 cells [4] = assay: ROS accumulation by DCFDA staining; conditions: 24 and 48 h, compared to untreated cells
Protocol: The elevation of oxidative stress inside cancer cells, consequent to treatment with 4112, was investigated via monitoring ROS release over time (24 and 48 h). In this test, the 2′,7′-dichlorofluorescin diacetate (DCFDA) dye was used to detect various ROS species and emit green fluorescence.
To determine the effect of the newly synthesized compounds on the cellular redox status, two different free radical sensitive probe dichlorofluorescin diacetate (DCFDA) was used. Cells were cultured on sterile 22 mm^2 cover slips (Harvard Apparatus, MA, USA) in sterile six well plates at a density of 2×10^5 cells/well. […] At the end of the exposure, cells attached to cover slips were washed thrice with PBS and incubated with DCFDA 10 μM for 30 min at 37° C. in the dark. Thereafter, cells were washed thrice with PBS and the cover slips were then mounted on a glass slide with anti-fade mounting medium containing 4′,6′-diamidino-2-phenylindole, dihydrochloride (DAPI) (Sigma-Aldrich, St. Louis, Mo., USA), which was used as counter stain and viewed with an epifluorescence microscope, Leica, DM 5500 B (Leica, Buffalo Grove, Ill., USA) at a magnification of 60×. Data were captured digitally and quantified using the microscope provided software.

## CCCNC(=O)/C(=C/c1c[nH]c2ccccc12)NC(=O)/C=C/c1cccs1 [Compound 4112, (Z)-3-(1H-indol-3-yl)-N-propyl-2-[(E)-3-(thien-2-yl)acrylamidolacry]amide]
HCT-116 cells [1]
  IC50: 2850 ± 1500 nM
HT-29 cells
  IC50: 1650 ± 70 nM
HCT-116 cells [2]
  percentage of cells with fragmented DNA and condensed nuclei: greatly increased
HCT-116 cells [3]; after 48 hours
  cell population in early apoptosis: 17.5%
  cell population in late apoptosis: 4.1%
  viable cells: 72%
HCT-116 cells [3]; at 24 hours
  change in cell viability: very little change in cell viability
HCT-116 cells [4]
  accumulation of ROS: causes accumulation of ROS
